# “Also recorded” adds a separate entry of the source.
# Columns and labels:
# Water solubility = type: physicochemical; settings: in distilled water
# Experimental: The synthesis of dicyanocobinamide (Cbi) was performed according to previously reported methods.[59] Briefly, to a 10 mL microwave reaction vessel containing a magnetic stir bar were added B12 (cyanocobalamin) (303.8 mg, 0.225 mmol) (see Figures S1–S6), sodium cyanide (NaCN) (36.9 mg, 0.7096 mmol), and 5 mL of EtOH, and the vessel was sealed. The reaction was heated to 120 °C for 10 min. Following completion of the microwave reaction, the remaining solution was transferred and diluted using isopropyl alcohol (iPrOH). The reaction was purified utilizing a normal-phase silica column. The reaction was eluted using 100% methanol (MeOH). The product eluted as a purple product. The isolated product was precipitated utilizing diethyl ether (Et2O) and allowed to dry producing a solid, purple product, 2 (see Figure 2), in 80% yield (187.4 mg, 0.1795 mmol). Solubility was measured to be 400 mg/mL in distilled water.
# shrews = test: Food intake and body weight (energy balance) in shrews; type: in vivo, Suncus murinus; settings: 5 nmol/kg IP, single dose, n = 10 shrews
# Experimental: Food intake was evaluated using our custom-made feedometers, consisting of a standard plexiglass rodent housing cage (29 × 19 × 12.7 cm) with mounted food hoppers resting on a plexiglass cup (to account for spillage). Shrews had ad libitum access to powdered food through a circular (3 cm diameter) hole in the cage. Food was removed 1 h prior to the dark onset. […] Food intake was manually measured at 6, 24, and 48 h post injection. BW was measured at 0, 24, and 48 h.
# [1] = molecular target: human glucagon like peptide-1 receptor (human) (UniProt P43220)
# human glucagon like peptide-1 receptor (human), sequence (P43220 24-463): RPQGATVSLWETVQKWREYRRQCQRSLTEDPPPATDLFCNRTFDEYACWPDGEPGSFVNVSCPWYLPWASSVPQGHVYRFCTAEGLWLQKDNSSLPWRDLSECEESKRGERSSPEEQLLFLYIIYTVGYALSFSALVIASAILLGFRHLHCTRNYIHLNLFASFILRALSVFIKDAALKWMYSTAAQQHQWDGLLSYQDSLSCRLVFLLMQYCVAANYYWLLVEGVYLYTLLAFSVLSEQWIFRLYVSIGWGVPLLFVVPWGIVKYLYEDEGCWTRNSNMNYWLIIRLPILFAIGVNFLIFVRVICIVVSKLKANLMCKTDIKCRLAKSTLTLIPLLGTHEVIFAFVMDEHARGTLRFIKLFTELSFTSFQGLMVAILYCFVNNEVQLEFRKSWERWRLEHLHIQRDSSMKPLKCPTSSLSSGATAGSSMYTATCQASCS
# patients = settings: over ∼1 year; cited from earlier work
# rat GLP-1R (rat) = rat GLP-1R (rat) (UniProt P32301)
# rat GLP-1R (rat), sequence (P32301 22-463): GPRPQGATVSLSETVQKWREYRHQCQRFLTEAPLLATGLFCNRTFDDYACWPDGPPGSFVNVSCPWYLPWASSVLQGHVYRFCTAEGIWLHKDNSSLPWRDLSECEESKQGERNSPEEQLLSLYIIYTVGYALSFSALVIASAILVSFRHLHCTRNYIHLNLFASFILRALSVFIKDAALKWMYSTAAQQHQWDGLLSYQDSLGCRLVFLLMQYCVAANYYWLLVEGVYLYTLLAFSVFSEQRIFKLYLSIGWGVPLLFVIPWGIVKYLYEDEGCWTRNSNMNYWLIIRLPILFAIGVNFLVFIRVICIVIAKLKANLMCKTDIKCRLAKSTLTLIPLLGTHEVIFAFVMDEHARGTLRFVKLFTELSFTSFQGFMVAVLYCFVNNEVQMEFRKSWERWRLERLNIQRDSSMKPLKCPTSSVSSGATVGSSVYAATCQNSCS
# [2] = molecular target: human glucagon like peptide-1 receptor (human) (UniProt P43220); test: AlphaScreen or HTRF; Taglite fluorescence competitive binding assay (Euroscreen Fast, Cat No. FAST0154B) on CHO-K1 cells at the human GLP-1R; agonist tracer GLP-1red at 4 nM, reference competitor nEx-4; nine concentrations from 1 pM to 1 uM, duplicate independent runs
molecule,measurement,setting,value
"C/C1=C2/[N-]C([C@H](CC(N)=O)[C@@]2(C)CCC(=O)NCC(C)O)[C@]2(C)N=C(/C(C)=C3N=C(/C=C4N=C1[C@@H](CCC(N)=O)C\4(C)C)[C@@H](CCC(N)=O)[C@]\3(C)CC(N)=O)[C@@H](CCC(N)=O)[C@]2(C)CC(N)=O.[C-]#N.[C-]#N.[Co] (stereo partly drawn) [compound 2, dicyanocobinamide]",Solubility,Water solubility,400 mg/mL
Cbi-Ex4 [compound 1],Food intake,"shrews; 6, 24, 48 h (72 h in Figure 6D)",had no effect on food intake; also recorded: had no impact on feeding
same,Body weight,shrews; 24 h,No significant changes in body weight; also recorded: not observed
exendin-4 with K12 azido modification (from UniProt P26349 48-87) (peptide),EC50 of agonism: cAMP FRET reporter H188 in HEK293 cells stably expressing the human GLP-1R,[1],0.0125 nM
exendin-4 with an azido-lysine added as residue 40 (from UniProt P26349 48-87) (peptide),EC50 of agonism: cAMP FRET reporter H188 in HEK293 cells stably expressing the human GLP-1R,[1],0.0104 nM
"liraglutide (HAEGTFTSDVSSYLEGQAAKEFIAWLVRGRG; chains of the INN, looked up) [GLP-1R agonist]",Body weight reduction,patients,5–6%
native Exendin-4 (from UniProt P26349 48-87) (peptide),EC50 of functional agonism at the rat GLP-1R,rat GLP-1R (rat),0.048 nM
same,IC50,[2],4.97 nM
semaglutide,Body weight reduction,patients,10–12%
